In the supplement of paper PMC10307832:

Tests used:
Assay in all cases: relative viability (nuclei count vs DMSO), 5 days (fraction); higher = more cells survive
[1] = compound: CC1=CN2C(=O)C=C(N=C2C(=C1)C(C)NC3=CC=CC=C3)N4CCOCC4 [TGX 221] + Nc1ncn([C@H]2C[C@H](O)[C@@H](CO)O2)c(=O)n1 [Decitabine] (partner 2 µM)
In short: (§1)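 Each reported value is a median over duplicate plates. It expresses relative viability: treated-well nuclei count divided by vehicle-well nuclei count. Lung cancer cell lines in 1536-well plates were dosed by pin tool a day after seeding, alone with one drug or with a fixed anchor-drug dose plus five library-drug doses (not always all listed) in √10 steps, and nuclei were counted after 5 days.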

[2] = compound: CC1=CN2C(=O)C=C(N=C2C(=C1)C(C)NC3=CC=CC=C3)N4CCOCC4 [TGX 221] + O=C(CCCCCCC(=O)Nc1ccccc1)NO [Vorinostat] (partner 1 µM)
In short: as §1

[3] = compound: O=C(CCCCCCNC(=O)c1cnc(N(c2ccccc2)c2ccccc2)nc1)NO [Ricolinostat] + CC(C)C[C@H](NC(=O)[C@H](Cc1ccccc1)NC(=O)c1cnccn1)B(O)O [Bortezomib] (partner 0.002 µM)
In short: as §1

[4] = compound: C1=CC=C(C(=C1)C2=CC=C(C=C2)C3=CSC4=C3C(=C(C(=O)N4)C#N)O)O + CCNC(=O)c1noc(-c2cc(C(C)C)c(O)cc2O)c1-c1ccc(CN2CCOCC2)cc1 [Luminespib] (partner 0.01 µM)
In short: as §1

Row | Cell Line | relative viability ([1]; first compound 0.08 µM) | relative viability ([1]; first compound 0.253 µM) | relative viability ([1]; first compound 0.8 µM) | relative viability ([1]; first compound 2.53 µM) | relative viability ([1]; first compound 8 µM) | relative viability ([2]; first compound 0.08 µM) | relative viability ([2]; first compound 0.253 µM) | relative viability ([2]; first compound 0.8 µM) | relative viability ([2]; first compound 2.53 µM) | relative viability ([2]; first compound 8 µM) | relative viability ([3]; first compound 0.08 µM) | relative viability ([3]; first compound 0.253 µM) | relative viability ([3]; first compound 0.8 µM) | relative viability ([3]; first compound 2.53 µM) | relative viability ([4]; first compound 0.08 µM) | relative viability ([4]; first compound 0.253 µM) | relative viability ([4]; first compound 0.8 µM) | relative viability ([4]; first compound 2.53 µM) | relative viability ([4]; first compound 8 µM)
1 | HOP-62 | 0.213 | 0.185 | 0.207 | 0.246 | 0.268 | 0.57 | 0.581 | 0.667 | 0.521 | 0.542 | 0.501 | 0.595 | 0.799 | 0.532 | 0.925 | 0.892 | 0.876 | 1.05 | 0.762
2 | LC-2-ad | 0.765 | 0.793 | 0.822 | 0.826 | 0.742 | 0.676 | 0.682 | 0.761 | 0.71 | 0.67 | 0.992 | 0.984 | 0.966 | 0.787 | 1.08 | 1.4 | 1.01 | 1.23 | 0.983
3 | LCLC-97TM1 | 0.206 | 0.22 | 0.233 | 0.228 | 0.225 | 0.819 | 0.459 | 0.856 | 0.615 | 0.847 | – | 0.59 | 0.212 | 0.163 | 0.971 | 1.07 | 0.78 | 0.729 | 0.654
4 | LCLC-103H | 0.777 | 0.704 | 0.677 | 0.725 | 0.754 | 0.761 | 0.806 | 0.708 | 0.647 | 0.766 | 0.79 | 0.88 | 1.09 | 0.927 | 0.87 | 0.98 | 1.06 | 0.929 | 1.06
5 | LOU-NH91 | 0.821 | 0.763 | 0.785 | 0.802 | 0.788 | 0.888 | 0.963 | 0.957 | 0.902 | 0.9 | – | 0.502 | 0.497 | 0.446 | 0.439 | 0.41 | 0.304 | 0.364 | 0.33
6 | LU99A | 0.861 | 0.842 | 0.852 | 0.937 | 0.997 | 0.431 | 0.514 | 0.588 | 0.356 | 0.529 | 1.02 | 0.952 | 0.976 | 0.745 | 0.245 | 0.234 | 0.295 | 0.261 | 0.242
7 | LXF-289 | 0.37 | 0.371 | 0.369 | 0.348 | 0.375 | 0.77 | 0.757 | 0.732 | 0.714 | 0.771 | 0.951 | 0.931 | 0.993 | 0.874 | 0.764 | 0.651 | 0.8 | 0.73 | 0.632
8 | NCI-H23 | 0.35 | 0.329 | 0.271 | 0.33 | 0.322 | 0.638 | 0.625 | 0.579 | 0.498 | 0.659 | 0.793 | 1.14 | 1.16 | 0.993 | – | 0.19 | 0.212 | 0.197 | 0.211
9 | NCI-H322M | 0.628 | 0.683 | 0.693 | 0.62 | 0.678 | 0.865 | 0.876 | 0.839 | 0.872 | 0.718 | – | 1.14 | 1.29 | 1.22 | 0.792 | 0.808 | 0.881 | 0.911 | 0.758
10 | NCI-H441 | 0.226 | 0.239 | 0.24 | 0.285 | 0.287 | 0.717 | 0.785 | 0.724 | 0.856 | 0.859 | 0.596 | 0.341 | 0.342 | 0.25 | 0.344 | 0.352 | 0.269 | 0.308 | 0.344
11 | NCI-H460 | 0.488 | 0.442 | 0.489 | 0.453 | 0.401 | 0.654 | 0.632 | 0.655 | 0.691 | 0.595 | 0.895 | 1.01 | 1.11 | 1 | 0.0357 | 0.0366 | 0.0362 | 0.0279 | 0.036
12 | NCI-H520 | 0.449 | 0.428 | 0.306 | 0.341 | 0.335 | 0.599 | 0.564 | 0.627 | 0.493 | 0.53 | – | 0.609 | 0.414 | 0.103 | 0.261 | 0.225 | 0.218 | 0.246 | 0.21
13 | NCI-H596 | 0.987 | 1.16 | 1.14 | 1.08 | 0.963 | 0.571 | 0.588 | 0.685 | 0.494 | 0.524 | 0.896 | 1.09 | 1.13 | – | 0.696 | 0.941 | 0.943 | 1.15 | 0.904
14 | NCI-H647 | 0.288 | 0.406 | 0.385 | 0.355 | 0.384 | 0.466 | 0.442 | 0.457 | 0.547 | 0.665 | 0.877 | 1.06 | 0.948 | 0.421 | 0.183 | 0.0923 | 0.19 | 0.245 | 0.209
